Patent US20230135093A1, “TRIAZOLYL DERIVATIVES AS GABA A ALPHA5 PAM” (Hoffmann-La Roche Inc., priority 2020, published 2023)

Columns and labels:
h-GABA-A α5β3γ2 [1] = target: T1, h-GABA-A α5β3γ2 (Homo sapiens, UniProt P18507+P31644); assay: [3H]flumazenil competition binding assay on membranes of HEK293 cells expressing GABAA receptors; conditions: Table 1; displacement of [3H]-Flumazenil (0.5 nM), HEK293 cells expressing human receptors, means of two determinations
T1 construct: expressed in transfected cells; host or cells: Xenopus laevis oocytes, micro-injected with subunit RNA
In short: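 Competition for [3H]flumazenil (0.5 nM for α5 subunits) was measured at equilibrium (1 h, 4 °C, Krebs-tris buffer pH 7.5) on transiently transfected HEK293 membranes bearing human α5β3γ2 receptors, with 10^−5 M diazepam defining nonspecific binding. Ki values were derived from filtration and scintillation counting, averaged over duplicates.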

h-GABA-A α5β3γ2 [2] = target: T1, h-GABA-A α5β3γ2; assay: Two-electrode voltage clamp electrophysiology in Xenopus oocytes expressing GABAA receptors (modulation of GABA EC20 current); assay type: cell-based; conditions: Table 1; for Efficacy (GABA) %: % modulation of GABA EC20 = 100*(Fold increase-1); for Fold increase h-GABA-A α5β3γ2 oocyte: Xenopus oocytes, GABA EC20, test compound at approximatively 30 fold its Ki
In short: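 GABA EC20 currents in human α5β3γ2-expressing Xenopus oocytes, voltage-clamped at −80 mV (room temperature, pH 7.4), measured with and without compound at ~30× Ki applied 0.5 min into the second GABA pulse. % modulation = 100×(fold increase−1), taken from the extremum of the current ratio trace; at least 3 oocytes per concentration.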

CCn1nnc(-c2ccc(Cl)cc2F)c1Cn1ncc(N2CC(OCC(F)F)C2)cc1=O [Example 86, 2-[[5-(4-chloro-2-fluoro-phenyl)-3-ethyl-triazol-4-yl]methyl]-5-[3-(2,2-difluoro-ethoxy)azetidin-1-yl]pyridazin-3-one]
Ki (h-GABA-A α5β3γ2 [1]): 10.8 nM
Efficacy (GABA) % (h-GABA-A α5β3γ2 [2]): 136%
Fold increase h-GABA-A α5β3γ2 oocyte (h-GABA-A α5β3γ2 [2]): 2.36

CCn1nnc(-c2ccc(Cl)cc2F)c1Cn1ncc(N2CC(OCC(F)(F)F)C2)cc1=O [Example 87, 2-[[5-(4-chloro-2-fluoro-phenyl)-3-ethyl-triazol-4-yl]methyl]-5-[3-(2,2,2-trifluoro-ethoxy)azetidin-1-yl]pyridazin-3-one]
Ki (h-GABA-A α5β3γ2 [1]): 12.5 nM
Efficacy (GABA) % (h-GABA-A α5β3γ2 [2]): 115%
Fold increase h-GABA-A α5β3γ2 oocyte (h-GABA-A α5β3γ2 [2]): 2.15

CCn1nnc(-c2ccc(Cl)cc2F)c1Cn1ncc(N2CC(OC(F)F)C2)cc1=O [Example 88, 2-[[5-(4-chloro-2-fluoro-phenyl)-3-ethyl-triazol-4-yl]methyl]-5-[3-(difluoromethoxy)azetidin-1-yl]pyridazin-3-one]
Ki (h-GABA-A α5β3γ2 [1]): 7 nM
Efficacy (GABA) % (h-GABA-A α5β3γ2 [2]): 126%
Fold increase h-GABA-A α5β3γ2 oocyte (h-GABA-A α5β3γ2 [2]): 2.26

Cn1nnc(-c2ccc(C(F)(F)F)cc2F)c1Cn1ncc(N2CC(Oc3cnccn3)C2)cc1=O [Example 89, 2-[[5-[2-fluoro-4-(trifluoromethyl)phenyl]-3-methyl-triazol-4-yl]methyl]-5-(3-pyrazin-2-yloxyazetidin-1-yl)pyridazin-3-one]
Ki (h-GABA-A α5β3γ2 [1]): 9.3 nM
Efficacy (GABA) % (h-GABA-A α5β3γ2 [2]): 76%
Fold increase h-GABA-A α5β3γ2 oocyte (h-GABA-A α5β3γ2 [2]): 1.76

CCn1nnc(-c2ccc(Cl)cc2F)c1Cn1ncc(N2CC(OC(C)C)C2)cc1=O [Example 90, 2-[[5-(4-chloro-2-fluoro-phenyl)-3-ethyl-triazol-4-yl]methyl]-5-(3-isopropoxyazetidin-1-yl)pyridazin-3-one]
Ki (h-GABA-A α5β3γ2 [1]): 19.4 nM
Efficacy (GABA) % (h-GABA-A α5β3γ2 [2]): 96%
Fold increase h-GABA-A α5β3γ2 oocyte (h-GABA-A α5β3γ2 [2]): 1.96

CCOC1CN(c2cnn(Cc3c(-c4ccc(Cl)cc4F)nnn3CC)c(=O)c2)C1 [Example 91, 2-[[5-(4-chloro-2-fluoro-phenyl)-3-ethyl-triazol-4-yl]methyl]-5-(3-ethoxyazetidin-1-yl)pyridazin-3-one]
Ki (h-GABA-A α5β3γ2 [1]): 18.2 nM
Efficacy (GABA) % (h-GABA-A α5β3γ2 [2]): 128%
Fold increase h-GABA-A α5β3γ2 oocyte (h-GABA-A α5β3γ2 [2]): 2.28

CCn1nnc(-c2ccc(Cl)cc2F)c1Cn1ncc(N2CCN(C(C)C)[C@@H](C)C2)cc1=O [Example 92, 2-[[5-(4-chloro-2-fluoro-phenyl)-3-ethyl-triazol-4-yl]methyl]-5-[(3S)-4-isopropyl-3-methyl-piperazin-1-yl]pyridazin-3-one]
Ki (h-GABA-A α5β3γ2 [1]): 5.6 nM
Efficacy (GABA) % (h-GABA-A α5β3γ2 [2]): 159%
Fold increase h-GABA-A α5β3γ2 oocyte (h-GABA-A α5β3γ2 [2]): 2.59

Cn1nnc(-c2ccc(C(F)(F)F)cc2F)c1Cn1ncc(N2CC(Oc3ccc(Cl)nc3)C2)cc1=O [Example 93, 5-[3-[(6-chloro-3-pyridyl)oxy]azetidin-1-yl]-2-[[5-[2-fluoro-4-(trifluoromethyl)phenyl]-3-methyl-triazol-4-yl]methyl]pyridazin-3-one]
Ki (h-GABA-A α5β3γ2 [1]): 9.4 nM
Efficacy (GABA) % (h-GABA-A α5β3γ2 [2]): 79%
Fold increase h-GABA-A α5β3γ2 oocyte (h-GABA-A α5β3γ2 [2]): 1.79

CC(C)N1CCN(c2cnn(Cc3c(-c4ccc(C(F)(F)F)cc4F)nnn3C)c(=O)c2)C[C@@H]1C [Example 94, 2-[[5-[2-fluoro-4-(trifluoromethyl)phenyl]-3-methyl-triazol-4-yl]methyl]-5-[(3S)-4-isopropyl-3-methyl-piperazin-1-yl]pyridazin-3-one]
Ki (h-GABA-A α5β3γ2 [1]): 10.4 nM
Efficacy (GABA) % (h-GABA-A α5β3γ2 [2]): 127%
Fold increase h-GABA-A α5β3γ2 oocyte (h-GABA-A α5β3γ2 [2]): 2.27

Cn1nnc(-c2ccc(Cl)cc2F)c1Cn1ncc(N2CC3(CCCCO3)C2)cc1=O [Example 95, 2-[[5-(4-chloro-2-fluoro-phenyl)-3-methyl-triazol-4-yl]methyl]-5-(5-oxa-2-azaspiro[3.5]nonan-2-yl)pyridazin-3-one]
Ki (h-GABA-A α5β3γ2 [1]): 11.1 nM
Efficacy (GABA) % (h-GABA-A α5β3γ2 [2]): 58%
Fold increase h-GABA-A α5β3γ2 oocyte (h-GABA-A α5β3γ2 [2]): 1.58

Cn1nnc(-c2ccc(Cl)cc2F)c1Cn1ncc(N2CC(OC(C)(C)C)C2)cc1=O [Example 96, 5-(3-tert-butoxyazetidin-1-yl)-2-[[5-(4-chloro-2-fluoro-phenyl)-3-methyl-triazol-4-yl]methyl]pyridazin-3-one]
Ki (h-GABA-A α5β3γ2 [1]): 20.4 nM
Efficacy (GABA) % (h-GABA-A α5β3γ2 [2]): 54%
Fold increase h-GABA-A α5β3γ2 oocyte (h-GABA-A α5β3γ2 [2]): 1.54

CCn1nnc(-c2ccc(Cl)cc2F)c1Cn1ncc(N2CC(OC(C)(C)C)C2)cc1=O [Example 97, 5-(3-tert-butoxyazetidin-1-yl)-2-[[5-(4-chloro-2-fluoro-phenyl)-3-ethyl-triazol-4-yl]methyl]pyridazin-3-one]
Ki (h-GABA-A α5β3γ2 [1]): 45.1 nM
Efficacy (GABA) % (h-GABA-A α5β3γ2 [2]): 115%
Fold increase h-GABA-A α5β3γ2 oocyte (h-GABA-A α5β3γ2 [2]): 2.15

Cn1nnc(-c2ccc(Cl)cc2F)c1Cn1ncc(N2CC(Oc3cncc(C(F)(F)F)n3)C2)cc1=O [Example 98, 2-[[5-(4-chloro-2-fluoro-phenyl)-3-methyl-triazol-4-yl]methyl]-5-[3-[6-(trifluoro-methyl)pyrazin-2-yl]oxyazetidin-1-yl]pyridazin-3-one]
Ki (h-GABA-A α5β3γ2 [1]): 8 nM
Efficacy (GABA) % (h-GABA-A α5β3γ2 [2]): 58%
Fold increase h-GABA-A α5β3γ2 oocyte (h-GABA-A α5β3γ2 [2]): 1.58

Cc1nccc(OC2CN(c3cnn(Cc4c(-c5ccc(Cl)cc5F)nnn4C)c(=O)c3)C2)n1 [Example 99, 2-[[5-(4-chloro-2-fluoro-phenyl)-3-methyl-triazol-4-yl]methyl]-5-[3-(2-methylpyrimidin-4-yl)oxyazetidin-1-yl]pyridazin-3-one]
Ki (h-GABA-A α5β3γ2 [1]): 4.6 nM
Efficacy (GABA) % (h-GABA-A α5β3γ2 [2]): 86%
Fold increase h-GABA-A α5β3γ2 oocyte (h-GABA-A α5β3γ2 [2]): 1.86

Cn1nnc(-c2ccc(Cl)cc2F)c1Cn1ncc(N2CC(Oc3ccnc(C(F)(F)F)n3)C2)cc1=O [Example 100, 2-[[5-(4-chloro-2-fluoro-phenyl)-3-methyl-triazol-4-yl]methyl]-5-[3-[2-(trifluoromethyl)pyrimidin-4-yl]oxyazetidin-1-yl]pyridazin-3-one]
Ki (h-GABA-A α5β3γ2 [1]): 15.9 nM
Efficacy (GABA) % (h-GABA-A α5β3γ2 [2]): 79%
Fold increase h-GABA-A α5β3γ2 oocyte (h-GABA-A α5β3γ2 [2]): 1.79

CCn1nnc(-c2ccc(Cl)cc2F)c1Cn1ncc(N2CC(Oc3ccc(Cl)nc3)C2)cc1=O [Example 101, 2-[[5-(4-chloro-2-fluoro-phenyl)-3-ethyl-triazol-4-yl]methyl]-5-[3-[(6-chloro-3-pyridyl)oxy]azetidin-1-yl]pyridazin-3-one]
Ki (h-GABA-A α5β3γ2 [1]): 9.2 nM
Efficacy (GABA) % (h-GABA-A α5β3γ2 [2]): 126%
Fold increase h-GABA-A α5β3γ2 oocyte (h-GABA-A α5β3γ2 [2]): 2.26

CCn1nnc(-c2ccc(Cl)cc2F)c1Cn1ncc(N2CC(Oc3cccnn3)C2)cc1=O [Example 102, 2-[[5-(4-chloro-2-fluoro-phenyl)-3-ethyl-triazol-4-yl]methyl]-5-(3-pyridazin-3-yloxyazetidin-1-yl)pyridazin-3-one]
Ki (h-GABA-A α5β3γ2 [1]): 20.2 nM
Efficacy (GABA) % (h-GABA-A α5β3γ2 [2]): 164%
Fold increase h-GABA-A α5β3γ2 oocyte (h-GABA-A α5β3γ2 [2]): 2.64
